Columns and labels:
patched-1 = target: T1, patched-1 (Homo sapiens, UniProt Q13635); assay: binding to the hedgehog receptor patched-1; settings: compared with mature Shh
T1 sequence (Q13635 1-1447): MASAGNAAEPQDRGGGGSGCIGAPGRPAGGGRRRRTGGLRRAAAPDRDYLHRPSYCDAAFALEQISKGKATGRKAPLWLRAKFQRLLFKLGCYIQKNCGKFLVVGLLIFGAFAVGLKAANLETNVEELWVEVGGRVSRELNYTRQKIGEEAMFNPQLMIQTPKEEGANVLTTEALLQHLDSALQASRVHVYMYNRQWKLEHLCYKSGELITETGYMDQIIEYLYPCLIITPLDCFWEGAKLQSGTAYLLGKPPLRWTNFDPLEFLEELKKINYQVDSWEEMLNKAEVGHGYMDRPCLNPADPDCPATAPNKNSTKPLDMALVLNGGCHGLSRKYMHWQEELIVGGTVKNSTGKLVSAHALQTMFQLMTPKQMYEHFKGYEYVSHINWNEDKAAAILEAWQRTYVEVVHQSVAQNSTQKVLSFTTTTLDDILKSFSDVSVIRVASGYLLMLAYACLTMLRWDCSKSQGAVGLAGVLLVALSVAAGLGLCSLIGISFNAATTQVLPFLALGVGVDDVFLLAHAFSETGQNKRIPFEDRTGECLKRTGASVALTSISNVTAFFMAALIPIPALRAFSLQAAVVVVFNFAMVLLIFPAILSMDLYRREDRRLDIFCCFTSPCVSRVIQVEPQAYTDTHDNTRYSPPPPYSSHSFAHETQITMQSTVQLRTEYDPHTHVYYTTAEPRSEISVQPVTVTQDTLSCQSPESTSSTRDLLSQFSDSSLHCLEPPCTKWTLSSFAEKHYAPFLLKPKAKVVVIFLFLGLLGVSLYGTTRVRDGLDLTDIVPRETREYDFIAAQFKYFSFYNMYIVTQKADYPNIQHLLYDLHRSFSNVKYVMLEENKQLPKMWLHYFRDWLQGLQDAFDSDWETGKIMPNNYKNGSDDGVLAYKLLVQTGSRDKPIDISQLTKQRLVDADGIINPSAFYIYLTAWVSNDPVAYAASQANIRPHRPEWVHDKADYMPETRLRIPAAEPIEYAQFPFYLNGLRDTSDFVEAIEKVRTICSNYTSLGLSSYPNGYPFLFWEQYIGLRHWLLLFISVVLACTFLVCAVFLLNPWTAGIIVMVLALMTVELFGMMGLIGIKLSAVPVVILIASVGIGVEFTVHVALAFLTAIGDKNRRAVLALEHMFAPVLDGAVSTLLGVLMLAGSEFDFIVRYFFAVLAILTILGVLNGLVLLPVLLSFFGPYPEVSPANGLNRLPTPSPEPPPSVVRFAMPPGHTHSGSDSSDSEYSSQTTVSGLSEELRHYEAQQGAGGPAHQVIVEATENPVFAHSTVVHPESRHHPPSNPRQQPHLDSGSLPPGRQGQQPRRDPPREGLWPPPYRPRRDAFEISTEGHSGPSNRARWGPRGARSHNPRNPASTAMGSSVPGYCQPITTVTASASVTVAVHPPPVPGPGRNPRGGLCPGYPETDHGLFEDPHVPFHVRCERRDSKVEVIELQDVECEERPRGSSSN

C3H10T1/2 cells = assay: C3H10T1/2 alkaline phosphatase induction assay; type: cell-based, mouse
Source text: Persons having ordinary skill in the art can easily test any putative hedgehog antagonist for these properties. In particular, the mouse embryonic fibroblast line C3H10T1/2 is a mesenchymal stem cell line that is hedgehog responsive. Hedgehog treatment of the cells causes an upregulation of gli-1 and patched-1 (known indicators of hedgehog dependent signaling) and also causes induction of alkaline phosphatase activity, an indicator that the cells have differentiated down the chondrocyte/ bone osteoblast lineage. Several hedgehog variants are unable to elicit a hedgehog-dependent response on C3H10T1/2 cells, but they competed with mature hedgehog for function and therefore serve as functional antagonists. […]
The mouse embryonic fibroblast line C3H10T1/2 is a mesenchymal stem cell line that, under defined conditions, can differentiate into adipocytes, chondrocytes, and bone osteoblasts (Taylor, S. M., and Jones, P. A., Cell 17: 771-779 (1979) and Wang, E. A., et al., Growth Factors 9: 57-71 (1993)). […] Shh has a similar effect on C3H10T1/2 cells (Kinto, N. et al., FEBS Letts. 404: 319-323 (1997)) and we routinely use the alkaline phosphatase induction by Shh as a quantitative measure of its in vitro potency. Shh treatment also produces a dose-dependent increase in gli-1 and ptc-1 expression, which can be readily detected by a PCR-based analysis.

matrigel plug = assay: subcutaneous matrigel plug assay of angiogenesis; settings: mouse, in vivo
Method: Hedgehog was also found to induce angiogenesis in the subcutaneous matrigel plug assay (Passaniti et al., 1992). Doses of 2 to 10 ug/ml of octyl, myr, PEG II or II-Fc fusion forms of human recombinant Shh were prepared in 0.5 ml of matrigel containing 40 IU/ml of heparin and injected subcutaneously into C57BL6 mice (3-5 mo. old, 5 mice/treatment group). The mice were sacrificed between 6-7 days after injection and the matrigel plug was dissected for visual inspection and histological analysis. […] The results of the matrigel plug support the finding that hedgehog can induce angiogenesis in vivo.

| ability to bind patched-1 (patched-1) | Substance | block of AP induction by mature Shh (C3H10T1/2 cells) | implants with significant hemoglobin content (matrigel plug) |
| --- | --- | --- | --- |
| indistinguishable from mature Shh | Shh in which the N-terminal cysteine is replaced with a serine residue: Shh mutant, N-terminal cysteine replaced with serine; functional antagonist | blocks AP induction |  |
|  | bFGF: Recombinant human bFGF, a known angiogenic protein |  | 3 of 5 |

Reference: patent US7498304B2, “Angiogenesis-modulating compositions and uses” (Curis, Inc., priority 2002, dated 2009)
